Measurements as given in patent US5098706A, “Juvenile hormone esterase for insect control” (The Regents of the University of California, priority 1988, dated 1992).

Assays:
[1] = molecular target: T1, juvenile hormone hemolymph carrier protein (H. virescens) (Heliothis virescens, UniProt Q25175); experiment: Binding of juvenile hormone by the hemolymph carrier protein; conditions: juvenile hormone bound by carrier protein
T1 construct: preparation not described in the excerpts
T1 sequence (Q25175 19-242): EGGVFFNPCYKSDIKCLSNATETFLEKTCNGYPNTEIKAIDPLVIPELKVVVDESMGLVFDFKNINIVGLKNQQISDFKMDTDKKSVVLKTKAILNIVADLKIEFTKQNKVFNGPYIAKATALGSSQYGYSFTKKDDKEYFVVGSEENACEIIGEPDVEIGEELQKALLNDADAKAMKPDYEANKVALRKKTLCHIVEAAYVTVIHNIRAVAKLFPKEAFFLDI
From the text: (§1) Juvenile hormone esterase is biochemically interesting in that it is an extraordinarily efficient enzyme. The very low Km ^31 6×10^-8 M of juvenile hormone esterase, its high kcat, and the low molarity of the enzyme even in the last larval stadium indicate that production of even small amounts of juvenile hormone esterase (<0.1% of total protein) should overpower the ability of the corpora allata to make juvenile hormone. This destruction of the juvenile hormone will be […] by the juvenile hormone hemolymph carrier protein.

[2] = molecular target: T2, juvenile hormone esterase (Heliothis virescens, UniProt P12992); experiment: Juvenile hormone esterase kinetics for juvenile hormone; type: biochemical; conditions: substrate juvenile hormone
T2 sequence (P12992 20-564): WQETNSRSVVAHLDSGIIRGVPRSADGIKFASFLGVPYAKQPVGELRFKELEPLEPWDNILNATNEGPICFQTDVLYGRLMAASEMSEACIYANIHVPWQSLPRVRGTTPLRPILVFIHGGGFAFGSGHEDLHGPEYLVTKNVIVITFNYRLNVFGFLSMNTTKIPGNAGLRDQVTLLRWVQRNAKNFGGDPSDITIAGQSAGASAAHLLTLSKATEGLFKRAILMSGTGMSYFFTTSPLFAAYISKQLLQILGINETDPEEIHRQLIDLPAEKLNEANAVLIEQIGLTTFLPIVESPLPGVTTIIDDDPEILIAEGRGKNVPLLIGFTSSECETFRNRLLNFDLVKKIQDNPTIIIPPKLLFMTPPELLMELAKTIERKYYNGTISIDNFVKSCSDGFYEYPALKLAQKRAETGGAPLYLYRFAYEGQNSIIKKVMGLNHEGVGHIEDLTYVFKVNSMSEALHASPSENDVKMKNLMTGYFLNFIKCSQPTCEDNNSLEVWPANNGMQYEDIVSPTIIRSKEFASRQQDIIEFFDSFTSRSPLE
From the text: as §1

tomato hornworm larvae = experiment: Prevention of cuticular blackening in tomato hornworm larvae injected with juvenile hormone esterase; type: in vivo, Manduca sexta; conditions: third stadium larvae injected with 9 μg (148 pmoles) juvenile hormone esterase, then 0.17 nmoles epofenonane
Description: Tomato hornworm larvae, obtained from Zoecon Corp., were injected with the affinity purified juvenile hormone esterase obtained from Example I. Injections were performed at 10 hours after lights on the day before ecdysis to the third stadium. Larvae were reared on a 14L"10D photoperiod. Injections were made in 1.5 μl of buffer cocktail containing 3-10 μg (49-164 pmoles) of esterase. Total protein in each injection was kept constant at 10 μg with […] bovine serum albumen (BSA). Control injections in buffer contained 10 μg BSA or 12 μg larval blood protein from which the esterase was removed.
FIG. 2 illustrates third stadium tomato hornworm larvae after injection with 9 μg (148 pmoles) of juvenile hormone esterase as in FIG. 1, but then treated with 17 nmoles epofenonane (left), 0.17 nmoles epofenonane (middle) or no epofenonane (right). […] Epofenonane is a juvenile hormone chemical mimic, although it is not a substrate for juvenile hormone esterase. Thus, FIG. 2 illustrates that even a dose of juvenile hormone which is too low completely to prevent an anti-juvenile hormone effect can still effect a localized response.

Work on juvenile hormone yielded a Kd [1] of 610 nM and a Km [2] of 0.06 µM.
`CCc1ccc(OCCC(CC)CCC2OC2(C)CC)cc1` (stereo not drawn) [epofenonane] was tested, and the “prevention of blackening of the cuticle” value (tomato hornworm larvae) was “not sufficient to prevent completely the blackening of the cuticle”.
